In publication PMC9907956 (Journal of inorganic biochemistry, 2022):

Tests used:
human CYP11B1 [1] = target: T1, human CYP11B1 (Homo sapiens, UniProt P15538); test: Spectral ligand binding titration; settings: for Kd: dissociation constant Kd, 1 μM CYP11B1; for Amax: 0.2 μM CYP11B1, 5 cm cuvettes
T1 sequence (P15538 25-503): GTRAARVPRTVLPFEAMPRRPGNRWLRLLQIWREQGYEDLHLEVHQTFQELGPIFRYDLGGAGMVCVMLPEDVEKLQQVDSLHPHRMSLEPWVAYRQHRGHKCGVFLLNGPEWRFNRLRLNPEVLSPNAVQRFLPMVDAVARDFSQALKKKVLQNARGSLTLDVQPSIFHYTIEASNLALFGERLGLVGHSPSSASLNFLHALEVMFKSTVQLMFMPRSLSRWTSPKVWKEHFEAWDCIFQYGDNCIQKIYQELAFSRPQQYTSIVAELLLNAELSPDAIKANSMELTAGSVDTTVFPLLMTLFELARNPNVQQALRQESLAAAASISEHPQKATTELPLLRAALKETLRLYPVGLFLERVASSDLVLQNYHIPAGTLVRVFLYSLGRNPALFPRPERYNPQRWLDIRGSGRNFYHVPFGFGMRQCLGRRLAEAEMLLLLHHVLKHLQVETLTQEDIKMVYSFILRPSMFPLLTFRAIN

[2] = target: T2, adrenodoxin-CYP11B1 fusion enzyme (Homo sapiens, UniProt P10109+P15538); test: Spectral ligand binding titration of the adrenodoxin-CYP11B1 fusion enzyme
T2 sequence (P10109+P15538 with tags, fused parts or gaps): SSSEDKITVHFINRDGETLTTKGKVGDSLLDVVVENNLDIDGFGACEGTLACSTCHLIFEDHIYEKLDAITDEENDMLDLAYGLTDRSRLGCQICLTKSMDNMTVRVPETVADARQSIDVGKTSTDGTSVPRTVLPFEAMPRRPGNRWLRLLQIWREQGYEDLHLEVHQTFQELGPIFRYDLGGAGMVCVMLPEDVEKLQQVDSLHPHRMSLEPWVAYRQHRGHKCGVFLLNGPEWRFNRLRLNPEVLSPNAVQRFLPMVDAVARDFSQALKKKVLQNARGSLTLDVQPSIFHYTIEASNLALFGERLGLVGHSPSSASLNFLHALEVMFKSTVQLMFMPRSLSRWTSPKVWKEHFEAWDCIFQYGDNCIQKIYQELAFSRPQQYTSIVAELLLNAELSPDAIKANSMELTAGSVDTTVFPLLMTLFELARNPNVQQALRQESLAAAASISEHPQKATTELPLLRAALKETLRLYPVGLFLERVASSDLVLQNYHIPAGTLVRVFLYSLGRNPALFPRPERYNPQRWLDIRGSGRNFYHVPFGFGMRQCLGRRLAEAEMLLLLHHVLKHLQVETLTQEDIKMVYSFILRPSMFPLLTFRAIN

human CYP11B1 [3] = target: T1, human CYP11B1; assay type: biochemical; settings: 1:1 condition to 1:40 excess adrenodoxin
CYP11B2 [4] = test: CYP11B2 substrate binding with varying adrenodoxin; design: species or system human; settings: over 40-fold range of excess adrenodoxin
CYP11B2 [5] = settings: increasing adrenodoxin up to 40-fold; ref [8]; cited from earlier work

Compound `C[C@]12CCC(=O)C=C1CC[C@@H]1[C@@H]2CC[C@@]2(C)[C@H]1CC[C@]2(O)C(=O)CO` [11-deoxycortisol] has a Kd (human CYP11B1 [1]; 10-fold excess adrenodoxin) of 12.2 µM, a Kd (human CYP11B1 [1]; 40-fold excess adrenodoxin) of 7.3 µM and a Kd (human CYP11B1 [1]; equimolar adrenodoxin (1 μM)) of 20.8 µM. For the same compound, the Kd (human CYP11B1 [1]; no adrenodoxin) was 17 µM, the “fold increase of Amax/Kd (binding efficiency)” value ([2]; adrenodoxin fused) was “more than 11 fold” and the “fold difference of Kd, fusion vs same 1:1 ratio of non-fused proteins” value ([2]; printed as higher) was ~ 5 fold. The “fold increase in catalytic efficiency (kcat/Km)” value (human CYP11B1 [3]) was “greater than 11 fold”.

`N#Cc1ccc([C@H]2CCc3cncn32)c(F)c1` [LCI699, osilodrostat] gave an Amax (human CYP11B1 [1]; 1:1 CYP11B1 to adrenodoxin) of 0.015 and an Amax (human CYP11B1 [1]; CYP11B1 alone) of 0.006.

In the case of `C[C@]12CC[C@H]3[C@@H](CCC4=CC(=O)CC[C@@]43C)[C@@H]1CC[C@@H]2C(=O)CO` [11-deoxycorticosterone], the “fold increase of Amax/Kd for CYP11B2” value (CYP11B2 [4]) is given as “more than 3 fold” and the “fold effect on Km for CYP11B2” value (CYP11B2 [5]) is given as 1.6 fold.
